Results: ChEMBL document CHEMBL1201862, “PubChem BioAssay data set” (2004)
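Where inhibition never reached the appropriate level, the endpoint shown equals the highest concentration tested. Otherwise, values were interpolated linearly from a five-concentration, 48-hour dose response in 96-well plates. At the GI50, growth is halved.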 Calls of active or inactive are those of the source. Cut-off read from the data, not from the text of the source: active = GI50 up to about 1.1 µM and inactive = higher. Where a SMILES comes first, the peptide text is derived from it. [ ]: non-standard residue; d: D form. The star is where a group is joined. ξ: configuration not given here. NMeF = CN[C@@H](Cc1ccccc1)C(=O)O; NMeV = CN[C@H](C(=O)O)C(C)C; ξNMeN = CNC(CC(N)=O)C(=O)O; NMeA = CN[C@@H](C)C(=O)O; ξNMeV = CNC(C(=O)O)C(C)C; Boc = CC(C)(C)OC(=O)*

Tests used:
Test in all cases: NCI anticancer screen, dose series, 48 h
SNB-19 = system: SNB-19
MDA-MB-231 = system: MDA-MB-231
SNB-75 = system: SNB-75
HT-29 = system: HT-29
786-0 = system: 786-0
Malme-3M = system: Malme-3M
SF-539 = system: SF-539
UACC-257 = system: UACC-257
NCI-H460 = system: NCI-H460
HCC 2998 = system: HCC 2998
UACC-62 = system: UACC-62
LOX IMVI = system: LOX IMVI
NCI/ADR-RES = system: NCI/ADR-RES
OVCAR-3 = system: OVCAR-3
MCF7 = system: MCF7
HCT-116 = system: HCT-116
HCT-15 = system: HCT-15
HOP-92 = system: HOP-92
SK-MEL-5 = system: SK-MEL-5
EKVX = system: EKVX

COC(=O)[C@H](C)N(C)C(=O)C(CC(N)=O)N(C)C(=O)[C@H](Cc1ccccc1)N(C)C(=O)[C@@H]1CCCN1C(=O)[C@H](C(C)C)N(C)C(=O)C(C(C)C)N(C)C(=O)[C@@H](NC(=O)OC(C)(C)C)C(C)C (stereo not given in full) (Boc-V[ξNMeV][NMeV]P[NMeF][ξNMeN][NMeA]-OMe)
GI50 (SNB-19): > 50 µM (inactive)
GI50 (MDA-MB-231): > 50 µM (inactive)
GI50 (SNB-75): 44 µM (inactive)
GI50 (HT-29): > 50 µM (inactive)
GI50 (786-0): > 50 µM (inactive)
GI50 (Malme-3M): > 75 µM (inactive)
GI50 (SF-539): > 50 µM (inactive)
GI50 (UACC-257): > 50 µM (inactive)
GI50 (NCI-H460): > 50 µM (inactive)
GI50 (HCC 2998): > 50 µM (inactive)
GI50 (UACC-62): > 50 µM (inactive)
GI50 (LOX IMVI): > 50 µM (inactive)
GI50 (NCI/ADR-RES): > 50 µM (inactive)
GI50 (OVCAR-3): > 50 µM (inactive)
GI50 (MCF7): > 50 µM (inactive)
GI50 (HCT-116): > 50 µM (inactive)
GI50 (HCT-15): > 75 µM
GI50 (HOP-92): 29 µM (inactive)
GI50 (SK-MEL-5): > 50 µM (inactive)
GI50 (EKVX): > 50 µM (inactive)
